The values below come from US8475804B2 (priority 2009, dated 2013).

Where a name gives a salt, the structure may show the parent alone. Read-outs that look alike come from different tables or passages of the source. Where only a bound is given, the exact number is not on record here.

Assay [1] concerns Ebola virus. Description: microbe, parasite or virus in culture. The format is cell-based, Ebolavirus (EBOV). Details: Max Effect HepG2: unit not given here. The conditions noted are these: for Emax: HepG2, read-out: Max Effect HepG2.
Assay [2] deals with Ebola virus. Description: microbe, parasite or virus in culture. The format is cell-based, Ebolavirus (EBOV).
The mark [3] stands for this setting: Zaire ebolavirus, Vero, read-out: Max Effect.
Where [4] appears, read: Zaire ebolavirus, Vero, read-out: Max Effect Vero.
[5] abbreviates: Zaire ebolavirus, HepG2, read-out: IC50 (μM) HepG2.
Where [6] appears, read: Zaire ebolavirus, Vero, read-out: IC50 (μM) Vero.

As to `CN1CCN(CCCN2c3ccccc3Sc3ccc(Cl)cc32)CC1` [Prochlorperazine Edisylate], the Emax in the assay on Ebola virus [1] (Zaire ebolavirus) was determined as 94.7%; in the assay on Ebola virus [2] (setting [3]) it was 89%; with Ebola virus [2] (setting [4]) it was 96.3%.

For orientation: IC50 means the concentration that gives 50% inhibition. Turning to `CCN(CC)CCCC(C)Nc1c2ccc(Cl)cc2nc2ccc(OC)cc12` (stereo not shown) [Quinacrine Dihydrochloride], the IC50 came out at 1 µM in the assay with Ebola virus [1] (setting [5]); 9.5 µM in the assay with Ebola virus [2] (Zaire ebolavirus, Vero); 5.7 µM in the assay on Ebola virus [2] (setting [6]). Moreover, the Emax turned out to be 86.2% with Ebola virus [1] (Zaire ebolavirus), 77.9% with Ebola virus [2] (setting [3]) and 92.3% with Ebola virus [2] (setting [4]).

Regarding `CN[C@H]1CC[C@@H](c2ccc(Cl)c(Cl)c2)c2ccccc21` [Sertraline Hydrochloride], the figures for the Emax in the assay with Ebola virus [1] (Zaire ebolavirus), in the assay on Ebola virus [2] (setting [3]) and in the assay on Ebola virus [2] (setting [4]) were 95%, 41.8% and 96.2%, respectively.

As to `CCC(C)(C)C(=O)O[C@H]1C[C@@H](C)C=C2C=C[C@H](C)[C@H](CC[C@@H]3C[C@@H](O)CC(=O)O3)[C@H]21` [Simvastatin], the Emax amounted to 35.3% in the assay on Ebola virus [1] (Zaire ebolavirus), 69% with Ebola virus [2] (setting [3]) and 55.7% in the assay on Ebola virus [2] (setting [4]). For the same molecule, the IC50 with Ebola virus [2] (Zaire ebolavirus, Vero) is 2 µM; in the assay on Ebola virus [2] (setting [6]), 20 µM.

For the molecule `CN(C)CCOc1ccc(/C(=C(/CCCl)c2ccccc2)c2ccccc2)cc1` [Toremifene Citrate], the IC50 with Ebola virus [1] (setting [5]) was 0.026 µM; with Ebola virus [2], more than 1 µM; with Ebola virus [2] (setting [6]), 0.16 µM. For the same molecule, the Emax was found to be 94.9% in the assay on Ebola virus [1] (Zaire ebolavirus) and 93.5% with Ebola virus [2] (setting [4]). Further, in the assay on Ebola virus [2], the “Max Effect” value came out at 0.900.

Regarding Vinorelbine Tartrate Hydrate, the “Max Effect HepG2” value in the assay with Ebola virus [1] is 0.788. The IC50 in the assay with Ebola virus [1] (read-out: IC50 (μM) HepG2) came out at 0.86 µM. Moreover, in the assay on Ebola virus [2], the “Max Effect” value was determined as 0.472 and the “Max Effect Vero” value is listed as 0.256. Moreover, the IC50 with Ebola virus [2] (read-out: IC50) was found to be 3.2 µM.
